Data published in patent US20140235542A1, “MODULAR, BIOACTIVE PEPTIDES FOR BINDING NATIVE BONE AND IMPROVING BONE GRAFT OSTEOINDUCTIVITY” (WISCONSIN ALUMNI RESEARCH FOUNDATION, priority 2013, published 2014).
Square brackets hold non-standard residues; d marks the D form. Ends that are not written are not given here. Gla = N[C@@H](CC(C(=O)O)C(=O)O)C(=O)O

Experiments:
[1] = Release kinetics of modular peptides from HA-coated film; conditions: after 5 days, PBS, 37° C.
Description: To quantify release kinetics of 5(6) FAM-conjugated modular peptides from HA-coated film, the films were first incubated in solutions containing 250 μM (˜500 μg) of each peptide (eBGu1, eBGu3, eBGa1, or eBGa3) to allow for binding (as described above), then incubated in 500 μl of PBS buffer at 37° C. with constant agitation for 5 days (eBGu1 and eBGu3 peptides) or 10 weeks (eBGa1 and eBGa3 peptides), respectively. Whole buffer solutions were changed at indicated time points and the amount of peptide released from the HA-coated film was determined via fluorescence analysis and comparison with standards containing known amounts of 5(6)-FAM. The fluorescent images of fluorescently-labeled peptides bound to HA-coated films were obtained using an Olympus IX51 fluorescence microscope (Olympus, Center Valley, Pa.).

[2] = Binding of 5(6)-FAM-conjugated modular peptides to HA-coated PLG films; conditions: 500 μg (1 mg/ml) 5(6)-FAM-conjugated peptide in PBS, 4 hr, 37° C., constant agitation
Description: Poly (lactide-coglycolide) (PLG) films were prepared via a solvent casting process in which PLG (85:15) pellets were dissolved in chloroform (50 mg/ml), added to a PTFE dish, and dried for 2 days. The films were further dried at 50-55° C. for 4 hr to remove residual solvent and samples were cooled to room temperature. Square films (1 cm^2) were manually cut out of the resulting PLG film sheets. A “bone-like” HA-based material layer was grown on the PLG films using a direct deposition technique by biomimetic mineralization in modified simulated body fluid (mSBF).
To measure the binding efficiency of modular peptides to the HA-coated PLG films and to gain preliminary insight into the properties that influence modular peptide immobilization, 1 cm^2 HA-coated PLG films was first exposed to PBS solutions containing 500 μg (1 mg/ml) of 5(6) FAM-conjugated eBMP-2, eBGu1, eBGu3, eBGa1, or eBGa3 modular peptide solution (See Table 1 for definitions of these abbreviations). The films were incubated in peptide solutions with constant agitation for 4 hr at 37° C., and the amount of free peptide remaining was determined by measuring the fluorescence emission of the solution (excitation: 494 nm; emission 519 nm) using a Synergy HT Multi-Detection Microplate Reader (BioTek, Winooski, Vt.), and comparing this emission to standard samples with known concentrations of 5(6)-FAM. To further characterize surface immobilization of the peptide with the highest binding efficiency—the eBGa3 peptide-1 cm^2 HA-coated films were incubated in various concentrations (50-750 nM) of 5(6)-FAM-conjugated eBGa3 peptide for 4 hr with constant agitation at 37° C. The amount of peptide bound to HA-coated film was again determined by fluorescence analysis, as described above.

[3] = Binding of rhodamine-labeled peptide to cortical bone; parameters: species or system sheep
Description: The native bone used were harvested from sheep tibia and bovine sternum. Cortical (compact) bone slices were collected from sheep tibia with periosteum removed, and trabecular (cancellous, spongy) bone cores were drilled out from bovine sternum under sterile conditions.
The peptide binding to native bones was tested in three different experiments. In the first experiment, the cortical bone slices were incubated in modular peptide solution (0.5 mL, PBS) with concentrations of 50, 100, 200 and 300 μg/mL. The incubation was continued in a static condition for a period of 0.5, 1, 2 and 3 hours. For another experiment, the trabecular bone cores were placed in the chamber of bone bioreactor where the peptide solution prepared in DMEM (100 μg/mL, 6.5 mL) was continuously circulated through the chamber for a time period of 2, 4, 6, 8 and 10 hours. In the last experiment, mBMP was bound in a spatially controlled manner by dip-coating, spotting or writing with mBMP solution on native bone tissues. Following each experiment, the bones were rinsed with PBS to remove unbound peptide and their fluorescence images were captured using a Typhoon fluorescence scanner (GE healthcare) or a Nikon Eclipse Ti inverted microscope. To quantify the fluorescence intensity, the images were converted into 8-bit using ImageJ to present the intensity level of each pixel in the range of 0 to 255. The mean pixel intensity of a selected region of interest was considered to be proportional to the amount of peptide bound.
To examine mBMP binding to cortical bone without periosteum (ca. 4 mm×7 mm×1.5 mm) from the shaft of sheep tibia, the bone tissue was incubated in mBMP solution prepared in phosphate buffered saline (PBS). The binding of mBMP was concentration-dependent for each incubation time tested (FIGS. 12 and 13A). The quantity of mBMP binding was proportional to the solution concentration, which was clearly observed through all concentrations at 0.5 hour. However, this dependence was not apparent at higher concentrations at later time points. […] The insignificant dependence on the incubation time is likely attributed to the rapid binding of mBMP to native bone tissue.

[4] = Binding of VEGF peptides to HA particles / HA slab
Description: The binding behavior of the peptides (both modular peptide, VEGF-OCN (SEQ ID NO:18), and VEGF-mimic) were analyzed and compared as described above. The amount of bound VEGF-OCN on the HA particle increased with peptide concentration and reached saturation at 15 μM (FIG. 8A).

[5] = test system: mouse yolk sac endothelial C166-GFP cells; assay: C166-GFP cell proliferation on peptide-treated HA slabs (CYQUANT); format: cell-based; conditions: 2-day culture on HA slab incubated in peptide solution
Description: Cells were again seeded at a density of 2×10^4 cells/cm^2 (4×10^4 cells per well) in 24-well plate. Prior to seeding, HA slabs (1 cm×1 cm) were incubated in peptide solution (PBS) for four hours at 37° C. and copiously rinsed with deionized water, and then placed in a well of the 24-well plate. After 1-day culture, cells were treated with 2 μM calcein AM solution, and imaged using Olympus IX-51 microscope.
Additionally, a cell number count of the C166-GFP cells as cultured in the presence of VEGF-OCN or VEGF mimic was determined For the cell count, cells were seeded at a density of 5×10^3 cells/cm^2 (1×10^4 cells per well) in a 24-well plate. After 2-day culture, cells were detached from the HA slab and cell number was assessed using CYQUANT assay.

Row | Substance | peptide released from HA-coated films [1] [%] | binding efficiency on the HA-coated PLG films [2] [%] | further results
1 | KIPKASSVPTELSAISTLYLAAAAEPRREVAEL [eBGu3, modular BMP-2/OCN peptide with Glu in place of Gla at three positions] | 93.33±17.24 | 7.6±7.8 | dependence of binding to cortical bone on concentration and incubation time ([3]; 50-300 μg/mL in PBS, 0.5-3 hours): independent of incubation time and peptide concentration; amount of peptide bound to cortical bone ([3]; each experimental condition tested): significantly less than that of mBMP
2 | KLTWQELYQLKYKGI-GGGAAAA-γEPRRγEVAγEL (KLTWQELYQLKYKGIGGGAAAA[Gla]PRR[Gla]VA[Gla]L) [VEGF-OCN] |  |  | peptide concentration at which bound amount on HA particle reached saturation ([4]; HA particles): 15 µM; effect of peptide-treated HA slab on cell number [5]: promoted cell proliferation
3 | KIPKASSVPTELSAISTLYLAAAAγEPRRAVAAL (KIPKASSVPTELSAISTLYLAAAA[Gla]PRRAVAAL-NH2; N-terminus assumed; SMILES CC[C@H](C)[C@H](NC(=O)[C@H](C)NC(=O)[C@H](CO)NC(=O)[C@H](CC(C)C)NC(=O)[C@H](CCC(=O)O)NC(=O)[C@@H](NC(=O)[C@@H]1CCCN1C(=O)[C@@H](NC(=O)[C@H](CO)NC(=O)[C@H](CO)NC(=O)[C@H](C)NC(=O)[C@H](CCCCN)NC(=O)[C@@H]1CCCN1C(=O)[C@@H](NC(=O)[C@@H](N)CCCCN)[C@@H](C)CC)C(C)C)[C@@H](C)O)C(=O)N[C@@H](CO)C(=O)N[C@H](C(=O)N[C@@H](CC(C)C)C(=O)N[C@@H](Cc1ccc(O)cc1)C(=O)N[C@@H](CC(C)C)C(=O)N[C@@H](C)C(=O)N[C@@H](C)C(=O)N[C@@H](C)C(=O)N[C@@H](C)C(=O)N[C@@H](CC(C(=O)O)C(=O)O)C(=O)N1CCC[C@H]1C(=O)N[C@@H](CCCNC(=N)N)C(=O)N[C@@H](CCCNC(=N)N)C(=O)N[C@@H](C)C(=O)N[C@H](C(=O)N[C@@H](C)C(=O)N[C@@H](C)C(=O)N[C@@H](CC(C)C)C(N)=O)C(C)C)[C@@H](C)O) [eBGa1, modular BMP-2/OCN peptide with one Gla residue] |  | 29.9±2 | 
4 | KIPKASSVPTELSAIATLYLAAAAEPRRAVAAL [eBGu1, modular BMP-2/OCN peptide with one Glu residue] | 98.89±18.84 | 10.3±4.7 | 
5 | KLTWQELYQLKYKGI [VEGF-mimic, VEGF helical region mimic first synthesized by Pedon, et al, reference compound] |  |  | amount of peptide bound to HA slab ([4]; HA slab, qualitative comparison): much less than that of VEGF-OCN
